Test results: ChEMBL document CHEMBL1201862, “PubChem BioAssay data set” (2004)
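Briefly, cells in 96-well plates were exposed to five compound concentrations for 48 h, and endpoints were estimated by linear interpolation. Abbreviation: GI50, concentration required for 50% inhibition of growth.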 The source made the active and inactive calls. Rule as the data show it: active = GI50 up to about 1.1 µM and inactive = higher.

Experiments:
Assay in all cases: NCI anticancer screen, dose series, 48 h
[1] = system: A549
[2] = system: CAKI-1
[3] = system: DU-145
[4] = system: HCC 2998
[5] = system: HCT-15
[6] = system: HL-60
[7] = system: KM12
[8] = system: MDA-MB-231
[9] = system: Malme-3M
[10] = system: OVCAR-4
[11] = system: OVCAR-5
[12] = system: RXF 393
[13] = system: SF-268
[14] = system: SF-539
[15] = system: SK-MEL-28
[16] = system: SK-MEL-2
[17] = system: SK-OV-3
[18] = system: SN12C
[19] = system: U-251

SMILES | GI50 [1] | GI50 [2] | GI50 [3] | GI50 [4] | GI50 [5] [µM] | GI50 [6] | GI50 [7] | GI50 [8] | GI50 [9] | GI50 [10] | GI50 [11] | GI50 [12] | GI50 [13] | GI50 [14] | GI50 [15] | GI50 [16] | GI50 [17] | GI50 [18] | GI50 [19]
C=CC[C@H](N=C(SC)SC)C(=O)N1C(=O)N(C)[C@@H](C)[C@H]1c1ccccc1 | 35.3 µM (inactive) | 25.1 µM (inactive) | 37.5 µM (inactive) | 27.9 µM (inactive) | 49.8 | 34 µM (inactive) | 36.2 µM (inactive) | > 100 µM (inactive) | 51.6 µM (inactive) | 29.9 µM (inactive) | 54.6 µM (inactive) | 33.8 µM (inactive) | 26.5 µM (inactive) | 36.4 µM (inactive) | 39.5 µM (inactive) | 30 µM (inactive) | 75 µM (inactive) | 40.7 µM (inactive) | 40.8 µM (inactive)
N=C(N)NS(=O)(=O)c1ccc(Nc2c3ccccc3nc3c(C(=O)NNCCO)cccc23)cc1 | 0.473 µM (active) | 0.198 µM (active) | 0.578 µM (active) | 0.211 µM (active) | 0.33 | 0.227 µM (active) | 0.141 µM (active) | 0.261 µM (active) | 0.14 µM (active) | 0.295 µM (active) | 0.499 µM (active) | 0.186 µM (active) | 0.141 µM (active) | 0.303 µM (active) | 0.252 µM (active) | 0.156 µM (active) | > 1 µM (active) | 0.282 µM (active) | 0.139 µM (active)
N#Cc1nc(C(F)(F)F)oc1N | > 100 µM (inactive) | > 100 µM (inactive) | > 100 µM (inactive) | > 100 µM (inactive) | > 100 | > 100 µM (inactive) | > 100 µM (inactive) | > 100 µM (inactive) | > 100 µM (inactive) | > 100 µM (inactive) | > 100 µM (inactive) | > 100 µM (inactive) | > 100 µM (inactive) | > 100 µM (inactive) | > 100 µM (inactive) | > 100 µM (inactive) | > 100 µM (inactive) | > 100 µM (inactive) | > 100 µM (inactive)
CC(=O)Oc1c(C)c2c(c3ncccc13)OC(C)C2 (stereo not given) | 13.4 µM (inactive) | 14.6 µM (inactive) | 16.2 µM (inactive) | 12.8 µM (inactive) | 12.1 | 7.4 µM (inactive) | 15.1 µM (inactive) | 11.5 µM (inactive) | 16.3 µM (inactive) | 16.3 µM (inactive) | 17.2 µM (inactive) | 14.8 µM (inactive) | 14.4 µM (inactive) | 15 µM (inactive) | 13.9 µM (inactive) | 18.1 µM (inactive) | 21 µM (inactive) | 16.2 µM (inactive) | 15.5 µM (inactive)
CCOC(=O)c1c(NS(=O)(=O)c2ccc(Br)cc2)sc2c1CCCC2 | 7.78 µM (inactive) | 10.2 µM (inactive) | 8 µM (inactive) | 16.7 µM (inactive) | 7.35 | 6.18 µM (inactive) | 6.65 µM (inactive) | 7.29 µM (inactive) | 12.9 µM (inactive) | 30.1 µM (inactive) | 6.71 µM (inactive) | 2.67 µM (inactive) | 3.72 µM (inactive) | 7.91 µM (inactive) | 15.8 µM (inactive) | 5.85 µM (inactive) | 18.5 µM (inactive) | 6.14 µM (inactive) | 12.4 µM (inactive)
Nc1ccc(Oc2ccc(C34CC5CC(C3)CC(c3ccc(Oc6ccc(N)c(O)c6)cc3)(C5)C4)cc2)cc1O | 1.64 µM (inactive) | 1.93 µM (inactive) | 1.71 µM (inactive) | 1.47 µM (inactive) | 1.77 | 2.12 µM (inactive) | 1.93 µM (inactive) | 1.57 µM (inactive) | 1.85 µM (inactive) | 2.24 µM (inactive) | 2.05 µM (inactive) | 1.41 µM (inactive) | 1.35 µM (inactive) | 2.13 µM (inactive) | 2.48 µM (inactive) | 2.07 µM (inactive) | 3.1 µM (inactive) | 2.45 µM (inactive) | 1.36 µM (inactive)
NC(=O)ON=C1CCN(Cc2ccccc2)CC1 | > 100 µM (inactive) | > 100 µM (inactive) | > 100 µM (inactive) | > 100 µM (inactive) | > 100 | > 100 µM (inactive) | > 100 µM (inactive) | > 100 µM (inactive) | > 100 µM (inactive) | > 100 µM (inactive) | > 100 µM (inactive) | > 100 µM (inactive) | > 100 µM (inactive) | > 100 µM (inactive) | > 100 µM (inactive) | > 100 µM (inactive) | > 100 µM (inactive) | > 100 µM (inactive) | > 100 µM (inactive)
CCOc1ccccc1/N=N/C1C(=O)N(C(=O)CC(=O)Nc2ccccc2Cl)N=C1C (stereo not given) | > 100 µM (inactive) | > 100 µM (inactive) | > 100 µM (inactive) | > 100 µM (inactive) | 26.9 | 32.8 µM (inactive) | > 100 µM (inactive) | 97.9 µM (inactive) | > 100 µM (inactive) | 71 µM (inactive) | > 100 µM (inactive) | > 100 µM (inactive) | 33.7 µM (inactive) | > 100 µM (inactive) | > 100 µM (inactive) | > 100 µM (inactive) | 26.9 µM (inactive) | > 100 µM (inactive) | 42.7 µM (inactive)
CC12CCC(C(Nc3ccccn3)C1=O)C2(C)C (stereo not given) | > 100 µM (inactive) | > 100 µM (inactive) | > 100 µM (inactive) | 29.9 µM (inactive) | > 100 | > 100 µM (inactive) | > 100 µM (inactive) | > 100 µM (inactive) | > 100 µM (inactive) | > 100 µM (inactive) | > 100 µM (inactive) | > 100 µM (inactive) | > 100 µM (inactive) | > 100 µM (inactive) | > 100 µM (inactive) | > 100 µM (inactive) | > 100 µM (inactive) | > 100 µM (inactive) | > 100 µM (inactive)
COc1ccccc1C1ON=C(c2ccc([N+](=O)[O-])cc2)N1C12CC3CC(CC(C3)C1)C2 (stereo not given) | 94 µM (inactive) | > 100 µM (inactive) | > 100 µM (inactive) | > 100 µM (inactive) | 91.6 | 4.35 µM (inactive) | > 100 µM (inactive) | > 100 µM (inactive) | 61.5 µM (inactive) | > 100 µM (inactive) | 44.7 µM (inactive) | 12.1 µM (inactive) | > 100 µM (inactive) | > 100 µM (inactive) | > 100 µM (inactive) | > 100 µM (inactive) | > 100 µM (inactive) | > 100 µM (inactive) | > 100 µM (inactive)
CN(C)CCCNC(=O)c1cc(NS(=O)(=O)c2ccc3c(c2)C(=O)c2ccccc2C3=O)cn1C | 35.9 µM (inactive) | 67.6 µM (inactive) | 40.3 µM (inactive) | 24.5 µM (inactive) | 42.8 | 22.1 µM (inactive) | 17.8 µM (inactive) | 24.8 µM (inactive) | 5.5 µM (inactive) | 16.8 µM (inactive) | 35.6 µM (inactive) | 28 µM (inactive) | 29.5 µM (inactive) | 42.8 µM (inactive) | 27.1 µM (inactive) | 40.5 µM (inactive) | 92.5 µM (inactive) | 29.1 µM (inactive) | 29.1 µM (inactive)
Nc1nc(Cl)c(N)c(NCC2(CO)CCC2)n1 | > 100 µM (inactive) | > 100 µM (inactive) | > 100 µM (inactive) | > 100 µM (inactive) | > 100 | > 100 µM (inactive) | > 100 µM (inactive) | > 100 µM (inactive) | > 100 µM (inactive) | > 100 µM (inactive) | > 100 µM (inactive) | > 100 µM (inactive) | > 100 µM (inactive) | > 100 µM (inactive) | > 100 µM (inactive) | > 100 µM (inactive) | > 100 µM (inactive) | > 100 µM (inactive) | > 100 µM (inactive)
CC(=O)NCc1nc(C#N)c(N)o1 | > 100 µM (inactive) | > 100 µM (inactive) | > 100 µM (inactive) | > 100 µM (inactive) | > 100 | > 100 µM (inactive) | > 100 µM (inactive) | > 100 µM (inactive) | > 100 µM (inactive) | > 100 µM (inactive) | > 100 µM (inactive) | > 100 µM (inactive) | > 100 µM (inactive) | > 100 µM (inactive) | > 100 µM (inactive) | > 100 µM (inactive) | > 100 µM (inactive) | > 100 µM (inactive) | > 100 µM (inactive)
c1ccc(-n2nc3ccc4nonc4c3n2)cc1 | > 100 µM (inactive) | > 100 µM (inactive) | > 100 µM (inactive) | > 100 µM (inactive) | > 100 | > 100 µM (inactive) | > 100 µM (inactive) | > 100 µM (inactive) | > 100 µM (inactive) | > 100 µM (inactive) | > 100 µM (inactive) | > 100 µM (inactive) | > 100 µM (inactive) | > 100 µM (inactive) | > 100 µM (inactive) | > 100 µM (inactive) | > 100 µM (inactive) | > 100 µM (inactive) | > 100 µM (inactive)
Oc1ccc(Br)cc1/C=N/c1cccc(C(F)(F)F)c1 | > 100 µM (inactive) | 66.7 µM (inactive) | 36.8 µM (inactive) | 23.1 µM (inactive) | 6.07 | 3.2 µM (inactive) | 36.6 µM (inactive) | 23.4 µM (inactive) | 23.5 µM (inactive) | 34.8 µM (inactive) | > 100 µM (inactive) | > 100 µM (inactive) | 8.69 µM (inactive) | 20.8 µM (inactive) | 36.1 µM (inactive) | 19.5 µM (inactive) | 45.7 µM (inactive) | 30.5 µM (inactive) | 6.89 µM (inactive)
